Test systems include CAKI-1 renal; COLO 205 colon; HCT-116 colon; MCF7 breast; MDA-MB-435; NCI-H522 lung; OVCAR-8 ovarian; PC-3 prostate; SK-MEL-5 melanoma; SR leukemia.
Holding throughout (experiment): DTP human tumour cell line panel, 48 h

The structures appear in SMILES notation.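 Step 1: Grow cells in 96-well plates. Step 2: Expose to compound for 48 hours at 5 concentrations. Step 3: Interpolate endpoints linearly; if unreached, use highest concentration. GI50: concentration for 50% inhibition of growth. The concentration for full growth arrest is given as TGI.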

In PubChem BioAssay (NCI) one finds GI50 and TGI data, which are given here for six compounds.

What is called GI50 is the concentration that inhibits growth by half. In general, TGI refers to the concentration giving total growth inhibition.

`c1cc(N[C@@H]2CCNC2)nc(-c2cnc3ccc(-c4cn[nH]c4)cn23)c1`: the GI50 with CAKI-1 renal was more than 47.9 µM; with COLO 205 colon, 3.46 µM; with HCT-116 colon it was 3.43 µM; in the experiment with MCF7 breast it was 3.31 µM; in the experiment on MDA-MB-435, 11.2 µM; with NCI-H522 lung, 0.916 µM. Also, the GI50 with OVCAR-8 ovarian is 6.47 µM; with PC-3 prostate it was 4.99 µM; in the experiment with SK-MEL-5 melanoma, 14.1 µM; with SR leukemia, 2.37 µM. Moreover, the TGI is more than 100 µM in the experiment with CAKI-1 renal; 9.85 µM in the experiment with COLO 205 colon; more than 100 µM with HCT-116 colon; 20.4 µM with MCF7 breast; 26.7 µM in the experiment on MDA-MB-435; 3.55 µM in the experiment on NCI-H522 lung. The TGI in the experiment with OVCAR-8 ovarian was more than 92.8 µM; with PC-3 prostate, 47.8 µM; in the experiment on SK-MEL-5 melanoma, 39.4 µM; in the experiment on SR leukemia, 10.1 µM.
`COc1cc(/C=C2\C(=O)N(Cc3ccc(Cl)cc3)c3ccccc32)cc(OC)c1OC`: the GI50 with CAKI-1 renal is 2.92 µM; in the experiment with COLO 205 colon, 3.15 µM; in the experiment on HCT-116 colon, 1.68 µM; with MCF7 breast, 2.97 µM; with MDA-MB-435, 2.32 µM; in the experiment on NCI-H522 lung, 2.2 µM. Also, the GI50 in the experiment on OVCAR-8 ovarian was 3.4 µM; with PC-3 prostate it was 2.43 µM; in the experiment on SK-MEL-5 melanoma, 3.98 µM; with SR leukemia, 1.51 µM. Besides, the TGI in the experiment with CAKI-1 renal was 13.8 µM; in the experiment with COLO 205 colon, 8.52 µM; in the experiment with HCT-116 colon, 3.19 µM; with MCF7 breast, more than 61.7 µM; in the experiment on MDA-MB-435 it was 7.03 µM; in the experiment with NCI-H522 lung, 5.93 µM. Also, the TGI was more than 45.2 µM with OVCAR-8 ovarian, 17.2 µM in the experiment on PC-3 prostate, 11.9 µM in the experiment with SK-MEL-5 melanoma and 4.19 µM with SR leukemia.
For `COc1ccc2c(c1)OC(N)=C(C#N)C2c1cc(OC)c(OC)c(OC)c1` (configuration not stated), the GI50 is 0.107 µM in the experiment with CAKI-1 renal; 0.0244 µM with COLO 205 colon; 0.0331 µM in the experiment on HCT-116 colon; 0.0361 µM in the experiment on MCF7 breast; 0.0189 µM in the experiment with MDA-MB-435; 0.0194 µM with NCI-H522 lung. The GI50 is 0.0355 µM with OVCAR-8 ovarian, 0.0498 µM in the experiment on PC-3 prostate, 0.0317 µM with SK-MEL-5 melanoma and 0.0345 µM in the experiment on SR leukemia. The TGI was more than 100 µM with CAKI-1 renal; 0.061 µM in the experiment with COLO 205 colon; more than 37.5 µM in the experiment with HCT-116 colon; more than 100 µM with MCF7 breast; 0.0631 µM in the experiment with NCI-H522 lung; more than 70.2 µM in the experiment on OVCAR-8 ovarian. Also, the TGI in the experiment on PC-3 prostate and in the experiment with SR leukemia was more than 100 µM throughout.
In the case of `c1ccc(-c2oc(-c3ccccc3)c(CN3CCCCC3)c2CN2CCCCC2)cc1`, the GI50 in the experiment on CAKI-1 renal is 4.81 µM; in the experiment with COLO 205 colon, 1.45 µM; with HCT-116 colon, 1.05 µM; in the experiment with MCF7 breast, 1.66 µM; in the experiment on MDA-MB-435, 2.73 µM; in the experiment on NCI-H522 lung, 2.47 µM. For the same compound, the GI50 in the experiment with OVCAR-8 ovarian is 3.91 µM; with PC-3 prostate, 2.34 µM; with SK-MEL-5 melanoma, 1.59 µM; in the experiment on SR leukemia, 2.52 µM. Besides, the TGI in the experiment on CAKI-1 renal is 18.7 µM; in the experiment with COLO 205 colon it was 5.01 µM; in the experiment with HCT-116 colon it was 11.2 µM; in the experiment with MCF7 breast, 6.15 µM; in the experiment with MDA-MB-435 it was 10.6 µM; in the experiment on NCI-H522 lung it was 11.7 µM. Moreover, the TGI was 17.1 µM with OVCAR-8 ovarian, 7.73 µM with PC-3 prostate, 3.08 µM in the experiment with SK-MEL-5 melanoma and 6.06 µM in the experiment on SR leukemia.
`O=C1Nc2ccc(Cl)cc2/C1=C\c1c(-c2ccc(Cl)cc2)nc2sc(C3CC3)nn12`: the GI50 in the experiment with CAKI-1 renal is 1.43 µM; in the experiment on COLO 205 colon, 5.77 µM; in the experiment with HCT-116 colon, 3 µM; in the experiment on MCF7 breast, 4.1 µM; in the experiment on MDA-MB-435, 9.36 µM; with NCI-H522 lung it was 4.5 µM. The GI50 in the experiment with OVCAR-8 ovarian is 3.12 µM; in the experiment on PC-3 prostate, 5 µM; in the experiment on SK-MEL-5 melanoma it was 3.2 µM; in the experiment on SR leukemia, 12.6 µM. Further, the concentration for total growth inhibition (TGI) was 11.1 µM in the experiment with CAKI-1 renal; 23.9 µM in the experiment on COLO 205 colon; 11.4 µM in the experiment on HCT-116 colon; 16.6 µM in the experiment on MCF7 breast; 28.9 µM in the experiment with MDA-MB-435; 26.3 µM in the experiment with NCI-H522 lung. Besides, the TGI in the experiment on OVCAR-8 ovarian was 11.5 µM; with PC-3 prostate, 19.6 µM; with SK-MEL-5 melanoma, 13 µM; with SR leukemia, 75.8 µM.
`CN(C)c1ccc(/C=C\c2ccnc3ccccc23)cc1`: the GI50 is 10.2 µM with CAKI-1 renal; 4.75 µM in the experiment on COLO 205 colon; 5.34 µM with HCT-116 colon; 0.328 µM with MCF7 breast; 1.47 µM in the experiment with MDA-MB-435; 6.4 µM in the experiment with NCI-H522 lung. Also, the figures for the GI50 in the experiment on OVCAR-8 ovarian, in the experiment with PC-3 prostate and in the experiment on SK-MEL-5 melanoma were 5.26 µM, 17.9 µM and 2.96 µM, respectively. The TGI with CAKI-1 renal was more than 100 µM; in the experiment with COLO 205 colon, 41.5 µM; with HCT-116 colon, more than 52.6 µM; in the experiment on MCF7 breast it was 10.9 µM; in the experiment on MDA-MB-435, more than 30.5 µM; in the experiment on NCI-H522 lung, more than 100 µM. In addition, the total growth inhibition concentration (TGI) was more than 100 µM in the experiment with OVCAR-8 ovarian, more than 100 µM with PC-3 prostate, 9.69 µM with SK-MEL-5 melanoma and more than 100 µM in the experiment on SR leukemia.
